From PMC10489073 (Molecules, 2023)

Legend:
MM1.S cells [1] = experiment: Cell apoptosis assay (Annexin V-FITC/PI flow cytometry); type: cell-based; conditions: 48 h
Method: For the cell apoptosis assay, MM1.S cells were plated in 12-well plates with a density of 6 × 10^5 cells per well and treated with BC-05 (1, 2, and 4 μM), ixazomib (10 nM) or a vehicle (0.5% DMSO) for 48 h after 12 h fixation. Then, cells were harvested, washed with a cold PBS buffer, and resuspended in 500 μL of an annexin V binding buffer. After being stained with 5 μL of Annexin V-FITC and 5 μL of propidium iodide, the cells were detected by a flow cytometer (Beckman Coulter Inc., Sharon Hill, PA, USA).

B16F10 cells = experiment: Survival time in mice bearing B16F10 cells; type: in vivo, C57BL/6 mice; conditions: for median survival time (MST): twice a week for two weeks, vehicle group 16 days
Method: The animal experiments were conducted under the guidelines of the “Regulations for the Administration of Affairs Concerning Experimental Animals” (revised 2017, State Council No. 676). Female C57/B6 mice at 5 to 6 weeks were implanted via intraperitoneal (ip) injection with 5.0 × 10^6 B16F10 cells per individual and randomly assigned into control groups and treatment groups. Seven days after inoculation, mice from the control group were treated orally with DMSO in a vehicle, whereas the compound group mice were treated with specified concentrations of compounds by oral administration twice a week for two weeks. The survival percentage of the mice in each group was recorded and plotted. The anti-tumor activity of the drug was evaluated by measuring the median survival time (MST) for each group.

[2] = test system: H22 pulmonary metastasis tumor model; experiment: In vivo H22 pulmonary metastasis model; design: species or system Kunming mice; conditions: p.o., BIW, 2 weeks, vehicle group 71.5
Method: The animal experiments were conducted under the guidelines of the “Regulations for the Administration of Affairs Concerning Experimental Animals” (revised 2017, State Council No. 676). H22 cells (3 × 10^6 cells/100 μL per mouse) were intravenously (i.v.) inoculated via the tail vein of Kunming mice aged 6 weeks on day 0. To ensure the growth of pulmonary metastasis before the drug treatment, the tumor was allowed to develop for 7 days. On day 8, the randomly grouped mice were treated with ixazomib (0.008 mmol/kg, p.o., BIW) or BC-05 (0.006, 0.008, and 0.01 mmol/kg, p.o., BIW) for consecutive 2 weeks. On day […], the mice were weighed and sacrificed, and the lungs were removed and weighed. After being fixed in the Bouin stationary solution for one day, the lung metastasized nodes of each mouse were numbered.

P3x63Ag8.653 = experiment: Cell proliferation analysis (MTT); type: cell-based, murine; conditions: Mus musculus, 48 h, read-out: Anti-proliferative activity IC50, P3x63Ag8.653
Method: All tumor cell lines in the current research were grown in a certain growth medium containing 10% FBS and 1% (v/v/v) penicillin–streptomycin–amphotericin at 37 °C in 5% CO2. Cells were seeded into 96-well plates at a density of 8 × 10^3 cells per well for tumor adherent cells and 2 × 10^4 cells per well for tumor-suspended cells in a final volume of 100 μL. After 12 h, 100 μL of various concentrations of compounds was added to each and incubated for 48 h. A 0.5% MTT solution was added per well before the intermixture was incubated for another 4 h, and formazan formed from MTT was extracted by adding […] of DMSO rocking for 15 min. Absorbance was measured at 570 nm using a Spark multimode microplate from Tecan. The IC50 values were calculated according to the inhibition ratios.

CD13 from Porcine Kidney = molecular target: T1, CD13 from Porcine Kidney (Sus scrofa, UniProt P15145); experiment: CD13 inhibition assay (porcine aminopeptidase, L-leucine-p-nitroanilide); type: biochemical; conditions: mean ± SD, n ≥ 3; read-out: IC50 toward CD13 from Porcine Kidney
T1 construct: purchased Sigma Chemical Co., St. Louis, MO, USA
T1 sequence (P15145 whole entry): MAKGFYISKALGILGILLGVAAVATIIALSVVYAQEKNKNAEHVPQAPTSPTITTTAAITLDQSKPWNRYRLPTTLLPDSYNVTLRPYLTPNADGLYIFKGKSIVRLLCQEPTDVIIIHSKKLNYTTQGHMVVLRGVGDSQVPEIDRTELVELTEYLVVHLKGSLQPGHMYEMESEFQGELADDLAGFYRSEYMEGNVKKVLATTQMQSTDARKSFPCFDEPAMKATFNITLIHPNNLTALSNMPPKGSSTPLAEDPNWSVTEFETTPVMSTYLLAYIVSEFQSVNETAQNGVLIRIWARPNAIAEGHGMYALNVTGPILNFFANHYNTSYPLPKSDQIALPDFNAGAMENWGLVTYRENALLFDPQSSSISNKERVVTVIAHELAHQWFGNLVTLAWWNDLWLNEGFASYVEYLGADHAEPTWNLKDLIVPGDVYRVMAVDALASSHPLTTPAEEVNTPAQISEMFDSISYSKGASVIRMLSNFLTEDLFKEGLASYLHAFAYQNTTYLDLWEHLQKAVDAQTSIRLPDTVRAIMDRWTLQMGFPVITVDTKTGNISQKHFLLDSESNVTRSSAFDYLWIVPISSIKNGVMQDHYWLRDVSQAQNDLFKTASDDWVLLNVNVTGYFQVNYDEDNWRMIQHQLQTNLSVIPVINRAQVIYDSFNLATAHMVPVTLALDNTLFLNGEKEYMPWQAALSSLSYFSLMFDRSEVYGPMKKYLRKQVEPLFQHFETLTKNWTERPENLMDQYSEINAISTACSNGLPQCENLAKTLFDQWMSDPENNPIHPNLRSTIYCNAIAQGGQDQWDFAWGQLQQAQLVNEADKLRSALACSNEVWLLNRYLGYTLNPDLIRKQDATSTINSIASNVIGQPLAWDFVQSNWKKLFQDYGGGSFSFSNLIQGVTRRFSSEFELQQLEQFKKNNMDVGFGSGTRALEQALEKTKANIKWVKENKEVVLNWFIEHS
Method: L-leucine-p-nitroanilide can be degraded by recombinant human aminopeptidase (R&D systems) or procine aminopeptidase (Sigma Chemical Co., St. Louis, MO, USA) and produce light absorption at 405 nm. The CD13 inhibitory activity of synthetic compounds was identified according to the degree of degradation of L-leucine-p-nitroanilide. L-leucine-p-nitroanilide was dissolved in DMSO and mixed with tested compounds in a transparent 96-well plate; then, aminopeptidase was added using phosphate solution (pH 7.2) as the assay buffer. After incubation at 37 °C for 30 min, the absorption was detected under a 405 nm wavelength via Tecan Spark multimode microplate.

MM1.S cells [3] = experiment: Cell cycle assay (PI flow cytometry); type: cell-based; conditions: MM1.S, 1, 2 and 4 µM, 48 h
Method: For the cell cycle assay, MM1.S cells were plated in 6-well plates with a density of 2.5 × 10^6 cells per well. A total of 12 h later, BC-05 (1, 2, and 4 μM), ixazomib (10 nM), or a vehicle (0.5% DMSO) was added, and the mixture was incubated for 48 h. Subsequently, cells were harvested, washed with cold PBS, and fixed in 75% cold ethanol at −20 °C overnight. After washing off the ethanol, fixed cells were treated with RNase A, dyed with propidium iodide solution (20 μg/mL), and incubated in the dark at 37 °C for 30 min. The final assay was analyzed using a Beckman flow cytometer.

[4] = test system: macrophage phagocytic activity (MPA) of the reticular endothelial system; experiment: Macrophage phagocytosis by carbon clearance test; type: in vivo, Kunming mice; conditions: twice a week for two weeks; for Carbon Clearance Index (K): Ctrl 0.057 ± 0.0061; for Phagocytosis Index (α): Ctrl 5.36 ± 0.19
Method: The animal experiments were conducted under the guidelines of the “Regulations for the Administration of Affairs Concerning Experimental Animals” (revised 2017, State Council No. 676). Kunming mice were randomly divided into control groups and treatment groups. After oral administration of test compounds twice a week for two weeks, the mice were injected with carbon ink suspension (Indian Ink, Camel) (100 μL/10 g of body weight) via the tail vein. Two and ten minutes after the injection of carbon suspension, the blood samples were collected from a retro-orbital vein. A total of 25 μL of a blood sample was directly added into 2 mL of 0.1% sodium carbonate solution. The absorbance of the sample was measured at 600 nm using a UV-visible spectrophotometer. The K value was calculated by the formula Log (OD2) − Log (OD10)/(T2 − T1), where OD2 and OD10 were the absorbance of blood at 2 and 10 min, respectively; T2 is the last time point of blood collection; T1 is the first time point of blood collection. The α value was calculated by the formula (k^1/3 × body weight)/(liver weight + spleen weight).

[5] = Acute toxicity experiment (single oral dose); type: in vivo; conditions: for Survival Animals: 7 days, n = 10
From the text: The mouse mortality was monitored daily and recorded up to 7 days after treatment.

CC(C)C[C@H](NC(=O)[C@@H](O)[C@H](N)Cc1ccccc1)B1OC(=O)C(CC(=O)O)(CC(=O)O)O1 [BC-05, 2,2′-(2-((R)-1-((2S,3R)-3-amino-2-hydroxy-4-phenylbutanamido)-3-methylbutyl)-5-oxo-1,3,2-dioxaborolane-4,4-diyl)diacetic acid]
cell apoptosis (MM1.S cells [1]; 1 µM): 12.4% | cell apoptosis (MM1.S cells [1]; 2 µM): 73.1% | cell apoptosis (MM1.S cells [1]; 4 µM): 88.0% | MST increase compared to the vehicle group (B16F10 cells; 0.008 mmol/kg oral): 1.4 fold | median survival time (MST) (B16F10 cells; 0.008 mmol/kg oral): 22 days | MST increase compared to the vehicle group (B16F10 cells; 0.012 mmol/kg oral): 1.6 fold | median survival time (MST) (B16F10 cells; 0.012 mmol/kg oral): 25 days | number of H22 pulmonary nodes ([2]; 0.006 mmol/kg): 17.3 | number of H22 pulmonary nodes ([2]; 0.008 mmol/kg): 15.2 | number of H22 pulmonary nodes ([2]; 0.01 mmol/kg): 12.7 | IC50 (P3x63Ag8.653): 17.7 ± 0.75 µM | IC50 (CD13 from Porcine Kidney): 0.65 ± 0.05 µM | cell cycle arrest (MM1.S cells [3]): blocks MM1.S cells in the Sub-G1 phase | Carbon Clearance Index (K) ([4]; 0.006 mmol/kg oral): 0.066 ± 0.0077 | Phagocytosis Index (α) ([4]; 0.006 mmol/kg oral): 6.60 ± 0.26 | Carbon Clearance Index (K) ([4]; 0.008 mmol/kg oral): 0.076 ± 0.0016 | Phagocytosis Index (α) ([4]; 0.008 mmol/kg oral): 6.61 ± 0.05 | LD50 at 7 days ([5]; both sexes, Kunming, mouse, in vivo, single oral dose, healthy mice): 400 µmol/kg | Survival Animals ([5]; single oral 0.27 mmol/kg): 10/10 | Survival Animals ([5]; single oral 0.36 mmol/kg): 6/10 | Survival Animals ([5]; single oral 0.49 mmol/kg): 4/10 | Survival Animals ([5]; single oral 0.65 mmol/kg): 1/10 | Survival Animals ([5]; single oral 0.86 mmol/kg): 0/10
